We go through 15 compounds from ChEMBL document CHEMBL1201862, “PubChem BioAssay data set” (2004).

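A five-concentration, 48-hour dose response in 96-well plates underlies each endpoint, interpolated linearly between surrounding concentrations. Abbreviation: GI50, concentration required for 50% inhibition of growth.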 Calls of active or inactive are those of the source. Rule as the data show it: active = GI50 up to about 1.1 µM and inactive = higher. Where only a bound is given, the exact number is not on record here.

What all share (assay): NCI-60 cell line screen, 48 h
The test system of assay [1] is HCT-116.
Assay [2] has as its system HCT-15.
Assay [3] deals with HL-60.
The test system of assay [4] is KM12.
Assay [5] deals with M14.
Assay [6] relates to Malme-3M.
Assay [7] concerns NCI-H23.
The test system of assay [8] is NCI-H522.
Assay [9] concerns OVCAR-3.
Assay [10] relates to OVCAR-5.
The subject of assay [11] is SF-268.
The subject of assay [12] is SF-295.
Assay [13] relates to SK-MEL-2.
Assay [14] concerns SNB-75.
The test system of assay [15] is SR.
For assay [16], the system named is RPMI-8226.

On to `CCc1cccc(C(C)C)c1NC(=O)/C(=N\NC(N)=O)C(C(=O)OC)c1cnc2ccccc2n1` (stereo not drawn), for which the GI50 in assay [1] is 24.2 µM (inactive); in [2], 39.2 µM; in assay [3] it was 31.8 µM (inactive); in [4], 41.6 µM (inactive); in assay [5] it was 39.6 µM (inactive); in assay [6] it was 34.4 µM (inactive). The GI50 was 24.8 µM (inactive) in assay [7]; 24.9 µM (inactive) in [8]; 20.8 µM (inactive) in assay [9]; > 100 µM (inactive) in assay [10]; > 100 µM (inactive) in assay [11]; 58.5 µM (inactive) in [12]. Also, the GI50 is 53.3 µM (inactive) in [13], 47.4 µM (inactive) in [14] and 46.5 µM (inactive) in assay [15].
As to `O=[N+]([O-])c1cccc(C(O)/C(=N/Nc2ccccc2)C2Nc3ccc([N+](=O)[O-])cc3N=C2O)c1` (stereo not drawn), the GI50 in assay [1] is > 100 µM (inactive); in [2], 14.4 µM; in assay [3], 10.8 µM (inactive); in assay [4], 27.8 µM (inactive); in assay [5] it was 42.1 µM (inactive); in [6], 95.9 µM (inactive). For the same compound, the GI50 was > 100 µM (inactive) in assay [7]; 19.7 µM (inactive) in [8]; 66.7 µM (inactive) in [9]; 49.3 µM (inactive) in assay [10]; 43 µM (inactive) in assay [16]; 93.5 µM (inactive) in [11]. For the same compound, the GI50 was 60.4 µM (inactive) in assay [12], > 100 µM (inactive) in [13] and 74 µM (inactive) in [14].
With `Clc1ccc(Cc2nc3ccccc3s2)c(Cl)c1`, the GI50 in [2] was 16.3 µM; in assay [3] it was 15.5 µM (inactive); in assay [4] it was 16.6 µM (inactive); in assay [5], 16.4 µM (inactive); in assay [6], 16.9 µM (inactive); in assay [7], > 10 µM (inactive). In addition, the GI50 in assay [8] is 15.7 µM (inactive); in [9] it was 18.6 µM (inactive); in assay [10], 19.3 µM (inactive); in assay [16] it was 17.7 µM (inactive); in [11], 15.7 µM (inactive); in assay [12] it was 16.8 µM (inactive). Also, the GI50 is 16.4 µM (inactive) in assay [13] and 14.7 µM (inactive) in assay [14].
For `c1ccc(C2N3CCCCC3[C@@H]3c4[nH]c5ccccc5c4CCN23)nc1` (stereo partly drawn), the GI50 was > 100 µM (inactive) in assay [1]; over 100 µM in [2]; 59.7 µM (inactive) in assay [3]; > 100 µM (inactive) in assay [5]; > 100 µM (inactive) in assay [7]; > 100 µM (inactive) in [9]. The GI50 in assay [10] is > 100 µM (inactive); in assay [16] it was > 100 µM (inactive); in [11], 47.9 µM (inactive); in [12] it was > 100 µM (inactive); in [13], > 100 µM (inactive); in assay [14], 68.7 µM (inactive).
Regarding `O=C(Cc1nc2ccccc2s1)Nc1cccc(C(F)(F)F)c1`, the GI50 in assay [2] was 12.4 µM; in [3], 3.59 µM (inactive); in [4], 15.2 µM (inactive); in assay [5] it was 15.6 µM (inactive); in [6], 16.6 µM (inactive); in assay [7] it was 14.8 µM (inactive). The GI50 in [8] was 14.1 µM (inactive); in assay [9] it was 17.6 µM (inactive); in assay [10], 18.5 µM (inactive); in assay [16], 7.5 µM (inactive); in assay [11], 14.8 µM (inactive); in [12] it was 16.2 µM (inactive). The GI50 in assay [13] is 18.5 µM (inactive); in assay [14], 13.7 µM (inactive).
With `COC(=O)C(C(=O)C(=O)Nc1ccc([N+](=O)[O-])cc1)c1nc2cc(C)c(C)cc2nc1O` (stereo not drawn), the GI50 in assay [1] is > 100 µM (inactive); in assay [2] it was over 100 µM; in [3], > 100 µM (inactive); in assay [4], > 100 µM (inactive); in [5], > 100 µM (inactive); in [6], > 100 µM (inactive). For the same compound, the GI50 in [7], in [8], in [9], in assay [10], in assay [16] and in [11] was > 100 µM (inactive) each time. Besides, the GI50 in [12], in assay [14] and in assay [15] was > 100 µM (inactive) each time.
On to `O=C(/C=C(\O)C(=O)O)/C=C(\O)c1ccccc1`, for which the GI50 is > 4.65 µM (inactive) in assay [1]; over 4.65 µM in assay [2]; > 4.65 µM (inactive) in assay [3]; > 100 µM (inactive) in assay [5]; > 4.65 µM (inactive) in [9]; > 4.65 µM (inactive) in assay [11]. For the same compound, the GI50 in assay [12] is > 4.65 µM (inactive); in assay [13] it was > 4.65 µM (inactive); in [14], > 4.65 µM (inactive); in [15], > 100 µM (inactive).
Take `O=[N+]([O-])c1ccccc1C1N2CCCCC2[C@@H]2c3[nH]c4ccccc4c3CCN12` (stereo partly drawn): the GI50 in assay [2] was 10.9 µM; in [3] it was 3.7 µM (inactive); in assay [5] it was 13.7 µM (inactive); in assay [7] it was 14.4 µM (inactive); in assay [9] it was 19.8 µM (inactive); in assay [10] it was 19.1 µM (inactive). Moreover, the GI50 in assay [16] was 10.9 µM (inactive); in assay [11], 11.6 µM (inactive); in assay [12], 13.8 µM (inactive); in [13], 13.6 µM (inactive).
Regarding `FC(F)(F)P1C2C=CC(CC2)C1(F)F` (stereo not drawn), the GI50 is > 100 µM (inactive) in [1]; over 100 µM in assay [2]; > 100 µM (inactive) in [3]; > 100 µM (inactive) in assay [4]; > 100 µM (inactive) in assay [5]; > 100 µM (inactive) in assay [6]. Besides, the GI50 in assay [7], in assay [8], in assay [10], in assay [16], in assay [11] and in [12] was > 100 µM (inactive) each time. The GI50 in assay [13] and in [14] was > 100 µM (inactive) throughout.
Regarding `O=C(CC(=O)Nc1ccccc1O)Nc1ccccc1O`, the GI50 in assay [1] was 13.2 µM (inactive); in assay [2], 5.68 µM; in assay [3], 1.83 µM (inactive); in assay [4] it was 10.8 µM (inactive); in [5], 16.1 µM (inactive); in assay [6] it was 22.8 µM (inactive). The GI50 was 22.2 µM (inactive) in [7]; 7.48 µM (inactive) in assay [8]; 14.9 µM (inactive) in [9]; 59.4 µM (inactive) in assay [10]; 5.13 µM (inactive) in [16]; 26.9 µM (inactive) in [11]. Also, the GI50 in assay [12] is 39 µM (inactive); in assay [14], 18.6 µM (inactive).
Take `O=[N+]([O-])c1ccc(C2=Nc3ccccc3[S+]([O-])C(c3ccccc3)C2)cc1` (stereo not drawn): the GI50 in [2] was 27 µM; in assay [3], 16.9 µM (inactive); in assay [4], 15.3 µM (inactive); in assay [5] it was 20.2 µM (inactive); in [6], 44.8 µM (inactive); in assay [7] it was 18.2 µM (inactive). Further, the GI50 in assay [8] is 16.7 µM (inactive); in assay [9] it was 17.5 µM (inactive); in assay [10], 25.8 µM (inactive); in [16], 5.56 µM (inactive); in [11], 27.9 µM (inactive); in assay [12] it was 31.3 µM (inactive). The GI50 in [13] is 34.7 µM (inactive); in assay [14], 19 µM (inactive).
Regarding `CCOC(=O)c1ccc(/C(C)=N/NC(N)=S)cc1`, the GI50 is > 100 µM (inactive) in assay [1]; over 100 µM in assay [2]; > 100 µM (inactive) in assay [3]; > 100 µM (inactive) in assay [5]; > 100 µM (inactive) in [7]; > 100 µM (inactive) in assay [9]. Besides, the GI50 in assay [16], in assay [12] and in assay [14] was > 100 µM (inactive) each time.
In the case of `CNc1ccc([N+](=O)[O-])c2c(NCCCN(C)C)ccnc12`, the GI50 was > 100 µM (inactive) in assay [1]; over 100 µM in assay [2]; > 100 µM (inactive) in assay [3]; > 100 µM (inactive) in assay [4]; > 100 µM (inactive) in assay [5]; > 100 µM (inactive) in [6]. Further, the GI50 in assay [7] was 99.1 µM (inactive); in assay [8] it was > 100 µM (inactive); in assay [9] it was > 100 µM (inactive); in assay [10], > 100 µM (inactive); in assay [16], > 100 µM (inactive); in assay [11] it was > 100 µM (inactive). Further, the GI50 in assay [12], in assay [13] and in assay [15] was > 100 µM (inactive) throughout.
With `CCOC(=O)NC(=O)c1cn(CCCOC(=O)CCCCCCCCCCC(=O)OCCCn2cc(C(=O)NC(=O)OCC)c(=O)[nH]c2=O)c(=O)[nH]c1=O`, the GI50 in assay [1], in assay [3], in assay [4], in assay [5], in assay [6] and in assay [7] was > 100 µM (inactive) in each case. The GI50 in assay [9], in assay [10], in assay [16], in assay [11], in [12] and in assay [13] was > 100 µM (inactive) throughout. Besides, the GI50 in assay [15] was > 100 µM (inactive).
On to `CN(C)/C=N\c1nc(=O)n(C2CCC(CO)O2)cc1F` (stereo not drawn), for which the GI50 is over 100 µM in [2]; > 100 µM (inactive) in assay [3]; > 100 µM (inactive) in assay [4]; > 100 µM (inactive) in assay [5]; > 100 µM (inactive) in assay [6]; > 100 µM (inactive) in [7]. For the same compound, the GI50 in assay [8], in assay [9], in assay [10], in assay [16], in [11] and in assay [12] was > 100 µM (inactive) each time. Moreover, the GI50 in assay [13] and in assay [14] was > 100 µM (inactive) in each case.
